Read-outs that look alike come from different tables or passages of the source.
Target: human factor Xa (Homo sapiens, UniProt P00742)
Experiment: Factor Xa assay (chromogenic, substrate S-2765);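 also: purified enzyme preincubated with inhibitor for 10 min before substrate addition, final reaction volume 100 µl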
Format: biochemical
Details: read-out: Ki(FXa)
[1] = inhibition constant for factor Xa, purified enzyme 0.5 nM, substrate S-2765 140 μM, 25° C., pH 7.8, Ki=IC50/{1+(substrate concentration/Km)}

Chain of human factor Xa (P00742 235-488 limits assumed): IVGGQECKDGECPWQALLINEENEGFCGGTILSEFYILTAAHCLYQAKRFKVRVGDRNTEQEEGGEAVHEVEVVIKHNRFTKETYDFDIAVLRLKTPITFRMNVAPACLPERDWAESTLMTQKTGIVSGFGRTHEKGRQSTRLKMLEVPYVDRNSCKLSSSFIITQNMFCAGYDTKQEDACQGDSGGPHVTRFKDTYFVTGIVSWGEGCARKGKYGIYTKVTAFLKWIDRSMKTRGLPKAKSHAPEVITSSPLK
Chain of human factor Xa (P00742 41-179 partner limits assumed): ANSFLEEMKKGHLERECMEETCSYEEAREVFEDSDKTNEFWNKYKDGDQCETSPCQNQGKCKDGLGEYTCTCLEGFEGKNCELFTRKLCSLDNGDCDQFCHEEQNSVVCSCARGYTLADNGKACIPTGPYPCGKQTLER

| Ki [nM] | Ki [1] [nM] | SMILES |
| --- | --- | --- |
| 20 |  | COc1ccc(OC)c2c1cc(C(=O)N(CC(=O)O)C1CCN(C(C)C)CC1)n2Cc1cc(-c2ccc(Cl)s2)on1 [Example 231, [{1-[5-(5-Chloro-thiophen-2-yl)-isoxazol-3-ylmethyl]-4,7-dimethoxy-1H-indole-2-carbonyl}-(1-isopropyl-piperidin-4-yl)-amino]-acetic acid] |
| 55 |  | CC(C)N1CCC(N(CC(=O)O)C(=O)c2cc3c(Cl)ccc(Cl)c3n2Cc2cc(-c3ccc(Cl)s3)on2)CC1 [Example 232, [{4,7-Dichloro-1-[5-(5-chloro-thiophen-2-yl)-isoxazol-3-ylmethyl]-1H-indole-2-carbonyl}-(1-isopropyl-piperidin-4-yl)-amino]-acetic acid] |
| 56 |  | CC(C)N1CCC(N(CC(=O)O)C(=O)c2cc3c(Cl)cccc3n2Cc2cc(-c3ccc(Cl)s3)on2)CC1 [Example 234, [{4-Chloro-1-[5-(5-chloro-thiophen-2-yl)-isoxazol-3-ylmethyl]-1H-indole-2-carbonyl}-(1-isopropyl-piperidin-4-yl)-amino]-acetic acid] |
| 5 |  | COC(=O)c1ccc2c(c1)cc(C(=O)NC1CCN(C(C)C)CC1)n2Cc1cc(-c2ccc(Cl)s2)on1 [Example 239, 1-[5-(5-Chloro-thiophen-2-yl)-isoxazol-3-ylmethyl]-2-(1-isopropyl-piperidin-4-ylcarbamoyl)-1H-indole-5-carboxylic acid methyl ester] |
|  | 15 | CC(C)N1CCC(NC(=O)c2cc3ccccc3n2CC(=O)Nc2ccc(Cl)s2)CC1 [Example 249, 1-[(5-chloro-thiophen-2-ylcarbamoyl)-methyl]-1H-indole-2-carboxylic acid (1-isopropyl-piperidin-4-yl)-amide] |
| 31 |  | CC(C)N1CCC(NC(=O)c2cc3ccccc3n2CC(=O)Nc2ccc(Cl)cc2F)CC1 [Example 250, 1-[(4-chloro-2-fluoro-phenylcarbamoyl)-methyl]-1H-indole-2-carboxylic acid (1-isopropyl-piperidin-4-yl)-amide] |
| 340 |  | O=C(Cn1c(C(=O)NC2CCN(c3ccncc3)CC2)cc2ccccc21)Nc1ccc(Cl)cc1 [Example 253, 1-[(4-chloro-phenylcarbamoyl)-methyl]-1H-indole-2-carboxylic acid (3,4,5,6-tetrahydro-2H-[1,4′]bipyridinyl-4-yl)-amide] |
| 223 |  | O=C(Cn1c(C(=O)N2CCC(Nc3ccncc3)CC2)cc2ccccc21)Nc1ccc(Cl)cc1 [Example 254, N-(4-chloro-phenyl)-2-{2-[4-(pyridin-4-ylamino)-piperidine-1-carbonyl]-indol-1-yl}-acetamide] |
| 139 |  | COCCN1CCC(NC(=O)c2cc3ccccc3n2Cc2cc(-c3ccc(Cl)s3)on2)CC1 [Example 261, 1-[5-(5-chloro-thiophen-2-yl)-isoxazol-3-ylmethyl]-1H-indole-2-carboxylic acid [1-(2-methoxy-ethyl)-piperidin-4-yl]-amide] |

The next lines start with the compound.

| SMILES | Ki [nM] | Ki [1] [nM] |
| --- | --- | --- |
| CCOC(=O)CN(C(=O)c1cc2c(Cl)cccc2n1Cc1cc(-c2ccc(Cl)s2)on1)C1CCN(C(C)C)CC1 [Example 228, [{4-Chloro-1-[5-(5-chloro-thiophen-2-yl)-isoxazol-3-ylmethyl]-1H-indole-2-carbonyl}-(1-isopropyl-piperidin-4-yl)-amino]-acetic acid ethyl ester] | 51 |  |
| CC(C)N1CCC(N(CC(=O)O)C(=O)c2cc3c(C(F)(F)F)cccc3n2Cc2cc(-c3ccc(Cl)s3)on2)CC1 [Example 229, [{1-[5-(5-Chloro-thiophen-2-yl)-isoxazol-3-ylmethyl]-4-trifluoromethyl-1H-indole-2-carbonyl}-(1-isopropyl-piperidin-4-yl)-amino]-acetic acid] | 172 |  |
| Cc1ccc(C)c2c1cc(C(=O)N(CC(=O)O)C1CCN(C(C)C)CC1)n2Cc1cc(-c2ccc(Cl)s2)on1 [Example 230, [{1-[5-(5-Chloro-thiophen-2-yl)-isoxazol-3-ylmethyl]-4,7-dimethyl-1H-indole-2-carbonyl}-(1-isopropyl-piperidin-4-yl)-amino]-acetic acid] | 12 |  |
| CC(C)N1CCC(N(CC(=O)O)C(=O)c2cc3cc(Cl)cc(Cl)c3n2Cc2cc(-c3ccc(Cl)s3)on2)CC1 [Example 233, [{5,7-Dichloro-1-[5-(5-chloro-thiophen-2-yl)-isoxazol-3-ylmethyl]-1H-indole-2-carbonyl}-(1-isopropyl-piperidin-4-yl)-amino]-acetic acid] | 74 |  |
| CC(C)OC(=O)c1ccc2c(c1)cc(C(=O)NC1CCN(C(C)C)CC1)n2Cc1cc(-c2ccc(Cl)s2)on1 [Example 235, 1-[5-(5-Chloro-thiophen-2-yl)-isoxazol-3-ylmethyl]-2-(1-isopropyl-piperidin-4-ylcarbamoyl)-1H-indole-5-carboxylic acid isopropyl ester] | 42 |  |
| CC(C)N1CCC(NC(=O)c2cc3cc(C(=O)O)ccc3n2Cc2cc(-c3ccc(Cl)s3)on2)CC1 [Example 236, 1-[5-(5-Chloro-thiophen-2-yl)-isoxazol-3-ylmethyl]-2-(1-isopropyl-piperidin-4-ylcarbamoyl)-1H-indole-5-carboxylic acid] | 10 |  |
| CC(C)N1CCC(NC(=O)c2cc3cc(CO)ccc3n2Cc2cc(-c3ccc(Cl)s3)on2)CC1 [Example 237, 1-[5-(5-Chloro-thiophen-2-yl)-isoxazol-3-ylmethyl]-5-hydroxymethyl-1H-indole-2-carboxylic acid (1-isopropyl-piperidin-4-yl)-amide] | 3 |  |
| CCOC(=O)c1ccc2c(c1)cc(C(=O)NC1CCN(C(C)C)CC1)n2Cc1cc(-c2ccc(Cl)s2)on1 [Example 238, 1-[5-(5-Chloro-thiophen-2-yl)-isoxazol-3-ylmethyl]-2-(1-isopropyl-piperidin-4-ylcarbamoyl)-1H-indole-5-carboxylic acid ethyl ester] | 11 |  |
| CC(C)N1CCC(NC(=O)c2cc3cc(C(=O)OCOC(=O)C(C)(C)C)ccc3n2Cc2cc(-c3ccc(Cl)s3)on2)CC1 [Example 240, 1-[5-(5-Chloro-thiophen-2-yl)-isoxazol-3-ylmethyl]-2-(1-isopropyl-piperidin-4-ylcarbamoyl)-1H-indole-5-carboxylic acid 2,2-dimethyl-propionyloxymethyl ester] | 35 |  |
| CC(C)N1CCC(NC(=O)c2cc3cc(C(=O)O)ccc3n2Cc2nnc(-c3ccc(Cl)s3)s2)CC1 [Example 242, 1-[5-(5-Chloro-thiophen-2-yl)-[1,3,4]thiadiazol-2-ylmethyl]-2-(1-isopropyl-piperidin-4-ylcarbamoyl)-1H-indole-5-carboxylic acid] | 4 |  |
| CC(C)OC(=O)c1ccc2c(c1)cc(C(=O)NC1CCN(C(C)C)CC1)n2CC(=O)Nc1ccc(Cl)cc1 [Example 243, 1-[(4-Chloro-phenylcarbamoyl)-methyl]-2-(1-isopropyl-piperidin-4-ylcarbamoyl)-1H-indole-5-carboxylic acid isopropyl ester] | 10 |  |
| CC(C)N1CCC(NC(=O)c2cc3cc(C(=O)O)ccc3n2CC(=O)Nc2ccc(Cl)cc2)CC1 [Example 244, 1-[(4-Chloro-phenylcarbamoyl)-methyl]-2-(1-isopropyl-piperidin-4-ylcarbamoyl)-1H-indole-5-carboxylic acid] | 4 |  |
| CC(C)N1CCC(NC(=O)c2cc3c(C(=O)O)cccc3n2Cc2cc(-c3ccc(Cl)s3)on2)CC1 [Example 246, 1-[5-(5-Chloro-thiophen-2-yl)-isoxazol-3-ylmethyl]-2-(1-isopropyl-piperidin-4-ylcarbamoyl)-1H-indole-4-carboxylic acid] | 4 |  |
| CC(C)N1CCC(NC(=O)c2cc3cc(C(N)=O)ccc3n2Cc2cc(-c3ccc(Cl)s3)on2)CC1 [Example 247, 1-[5-(5-Chloro-thiophen-2-yl)-isoxazol-3-ylmethyl]-1H-indole-2,5-dicarboxylic acid 5-amide 2-[(1-isopropyl-piperidin-4-yl)-amide]] | 24 |  |
| CC(C)N1CCC(NC(=O)c2cc3ccccc3n2CC(=O)Nc2ccc(Cl)cc2)CC1 [Example 248, 1-[(4-chloro-phenylcarbamoyl)-methyl]-1H-indole-2-carboxylic acid (1-isopropyl-piperidin-4-yl)-amide] |  | 3 |
| O=C(Cn1c(C(=O)NCC2CCN(c3ccncc3)CC2)cc2ccccc21)Nc1ccc(Cl)cc1 [Example 252, 1-[(4-chloro-phenylcarbamoyl)-methyl]-1H-indole-2-carboxylic acid (3,4,5,6-tetrahydro-2H-[1,4′]bipyridinyl-4-ylmethyl)-amide] | 230 |  |
| O=C(Cn1c(C(=O)NC2CCN(C3CC3)CC2)cc2ccccc21)Nc1ccc(Cl)cc1 [Example 255, 1-[(4-chloro-phenylcarbamoyl)-methyl]-1H-indole-2-carboxylic acid (1-cyclopropyl-piperidin-4-yl)-amide] | 106 |  |
| O=C(Cn1c(C(=O)N2CCC(N3CCCC3)CC2)cc2ccccc21)Nc1ccc(Cl)cc1 [Example 256, N-(4-chloro-phenyl)-2-[2-(4-pyrrolidin-1-yl-piperidine-1-carbonyl)-indol-1-yl]-acetamide] | 754 |  |
| CC(C)N1CCC(NC(=O)c2cc3cc([N+](=O)[O-])ccc3n2CC(=O)Nc2ccc(Cl)cc2)CC1 [Example 257, 1-[(4-chloro-phenylcarbamoyl)-methyl]-5-nitro-1H-indole-2-carboxylic acid (1-isopropyl-piperidin-4-yl)-amide] | 6 |  |
| CC(C)N1CCC(NC(=O)c2cc3c(Cl)c(N)ccc3n2Cc2cc(-c3ccc(Cl)s3)on2)CC1 [Example 258, 5-amino-4-chloro-1-[5-(5-chloro-thiophen-2-yl)-isoxazol-3-ylmethyl]-1H-indole-2-carboxylic acid (1-isopropyl-piperidin-4-yl)-amide] | 11 |  |
| N#CCN1CCC(NC(=O)c2cc3ccccc3n2Cc2cc(-c3ccc(Cl)s3)on2)CC1 [Example 259, 1-[5-(5-chloro-thiophen-2-yl)-isoxazol-3-ylmethyl]-1H-indole-2-carboxylic acid (1-cyanomethyl-piperidin-4-yl)-amide] | 772 |  |
| O=C(NC1CCN(CCO)CC1)c1cc2ccccc2n1Cc1cc(-c2ccc(Cl)s2)on1 [Example 260, 1-[5-(5-chloro-thiophen-2-yl)-isoxazol-3-ylmethyl]-1H-indole-2-carboxylic acid [1-(2-hydroxy-ethyl)-piperidin-4-yl]-amide] |  | 131 |
